Source: the COVID Moonshot data (paper PMC7615835)
pIC50: −log10 of the molar value. Where “and” joins values, the source holds several entries; their conditions need not be identical. Identical values can stand only once.

biological target: SARS-CoV-2 Main Protease (SARS-CoV-2) (UniProt P0DTD1)

Q: How did the pIC50 turn out when `O=C(NCCc1cccc(F)c1)C(c1cccnc1)N(C(=O)c1cnc[nH]1)C1CCCC2(CCC2)C1` (centres undefined) was run?
A: < 4.00

Q: How did the pIC50 turn out when `COC[C@]1(C(=O)Nc2cncc3ccccc23)CCOc2cc(Cl)c(Cl)cc21` (stereo in doubt) was run?
A: 5.62 and 5.36

Q: `CC(C)(C)c1ccc(N(C(=O)c2cc(O)cc(=O)o2)C(C(=O)NCCc2cccc(F)c2)c2cccnc2)cc1` (centres undefined) was tested. Which pIC50 did it give?
A: < 4.00

Q: With `CN(C)C(=O)c1ccc2c(NC(=O)Cc3cccc(Cl)c3)cncc2c1` as the compound, how does the pIC50 read?
A: 5.61

Q: With `Cc1ccncc1NC(=O)Cc1ccccc1N` as the compound, how does the pIC50 read?
A: < 4.00

Q: With `CC(C)(C)c1ccc(N(C(=O)c2nc3ncc(CCO)cn3n2)C(C(=O)NCCc2cccc(F)c2)c2cccnc2)cc1` (centres undefined) as the compound, how does the pIC50 read?
A: < 4.00

Q: `O=C(O)c1ccc(CNCc2c[nH]nc2-c2cccs2)cc1` was tested. Which pIC50 did it give?
A: < 4.00

Q: How did the pIC50 turn out when `NS(=O)(=O)c1ccc(CNC(=O)CC2(C(=O)Nc3cncc4ccccc34)CCOc3ccc(Cl)cc32)cc1` (centres undefined) was run?
A: 5.43

Q: With `O=C(Cc1cccc(Cl)c1)Nc1c[nH]c2ccccc12` as the compound, how does the pIC50 read?
A: < 4.00

Q: How did the pIC50 turn out when `O=C(Cc1cc(Cl)cc(Nc2ccc(F)nc2Br)c1)Nc1cncc2ccccc12` was run?
A: 5.73

Q: `CN1C(=O)CC(O)(C(=O)Nc2cncc3ccccc23)c2cc(Cl)ccc21` (centres undefined) was tested. Which pIC50 did it give?
A: 4.68

Q: How did the pIC50 turn out when `CNC(=O)C1(CC(=O)Nc2cncc3ccccc23)CCOc2ccc(Cl)cc21` (centres undefined) was run?
A: 4.51

Q: How did the pIC50 turn out when `CC(C)(C#N)CS(=O)(=O)N1Cc2ccc(Cl)cc2[C@@H](C(=O)Nc2cncc3ccccc23)C1` (stereo in doubt) was run?
A: 4.88

Q: With `NC(=O)CN1Cc2ccc(Cl)cc2C(C(=O)Nc2cncc3ccccc23)C1` (centres undefined) as the compound, how does the pIC50 read?
A: 6.96 and 6.93 and 6.89

Q: How did the pIC50 turn out when `Cc1cn2nnc(C(=O)N(c3ccc(C(C)(C)C)cc3)C(C(=O)NCCc3cccc(F)c3)c3cccnc3)c2c(=O)[nH]1` (centres undefined) was run?
A: < 4.00

Q: With `Cn1cnc(C(=O)N(c2ccc(C(C)(C)C)cc2)C(C(=O)NCCc2cccc(F)c2)c2cccnc2)n1` (centres undefined) as the compound, how does the pIC50 read?
A: 4.13

Q: `O=C(Cc1cc(Cl)cc(Nc2ccncc2Br)c1)Nc1cncc2ccccc12` was tested. Which pIC50 did it give?
A: 5.66

Q: With `O=C(CC1(C(=O)Nc2cncc3ccccc23)CCOc2ccc(Cl)cc21)N1CCCCC1c1nnc[nH]1` (centres undefined) as the compound, how does the pIC50 read?
A: 6.36

Q: `O=C(Nc1cncc2ccccc12)C1CN(S(=O)(=O)CC2(F)CC2)Cc2ccc(Cl)cc21` (centres undefined) was tested. Which pIC50 did it give?
A: 6.75

Q: With `N#CC1(CS(=O)(=O)N2Cc3ccc(Cl)cc3C(C(=O)Nc3cncc4cc(F)ccc34)C2)CC1` (centres undefined) as the compound, how does the pIC50 read?
A: 6.65

Q: With `CN(c1ccc2c(NC(=O)C3CN(S(=O)(=O)CC4(C#N)CC4)Cc4ccc(Cl)cc43)cncc2c1)S(C)(=O)=O` (centres undefined) as the compound, how does the pIC50 read?
A: 6.63

Q: How did the pIC50 turn out when `OC(Cc1cccc(Cl)c1)Cn1cncn1` (centres undefined) was run?
A: 4.19

Q: How did the pIC50 turn out when `O=C(Cc1cccc(Cl)c1)Nc1cccc2[nH]ncc12` was run?
A: < 4.00

Q: How did the pIC50 turn out when `CC(=O)N(CC(=O)Nc1ccc(F)c(Cl)c1)c1cccc(Cl)c1` was run?
A: < 4.00

Q: With `CC(C)N1CCCC(N2CCN(c3ccc4nccnc4n3)CC2)C1=O` (centres undefined) as the compound, how does the pIC50 read?
A: < 4.00

Q: With `O=C(COCC1(C(=O)Nc2cncc3ccccc23)CCOc2ccc(Cl)cc21)Nc1ncc[nH]1` (centres undefined) as the compound, how does the pIC50 read?
A: 5.70

Q: With `O=C(Nc1cncc2ccccc12)[C@H]1CCNc2cc(Cl)c(Cl)cc21` (stereo in doubt) as the compound, how does the pIC50 read?
A: < 4.00

Q: `O=C(NCCc1cccc(F)c1)C(c1cccnc1)N(C(=O)c1cocn1)c1ccc(-n2cc[nH]c2=O)cc1` (centres undefined) was tested. Which pIC50 did it give?
A: 4.35

Q: How did the pIC50 turn out when `O=C(Cc1cc(Cl)cc(B(O)O)c1)Nc1cncc2ccccc12` was run?
A: 5.32

Q: How did the pIC50 turn out when `O=C(NCCc1cccc(F)c1)C(c1cccnc1)N(C(=O)c1cocn1)C1CCC2OCCC2C1` (centres undefined) was run?
A: < 4.00

Q: `CN(C)c1ccc(N(Cc2ccn[nH]2)C(=O)Cn2nnc3ccccc32)cc1` was tested. Which pIC50 did it give?
A: 4.80

Q: How did the pIC50 turn out when `O=C(Nc1cncc2ccccc12)N(CCC1CCCCC1)c1cccc(Cl)c1` was run?
A: 6.58

Q: With `O=C(Nc1cncc2ccccc12)C1CCN(Cc2ccccc2)c2ccc(Cl)cc21` (centres undefined) as the compound, how does the pIC50 read?
A: 5.97

Q: `O=C(Cc1cc(Cl)cc(Nc2ccc3cc(Br)ccc3c2)c1)Nc1cncc2ccccc12` was tested. Which pIC50 did it give?
A: 5.68

Q: How did the pIC50 turn out when `COC(=O)c1c(C)n(S(C)(=O)=O)c2ccc(N(C(=O)c3ccco3)S(C)(=O)=O)cc12` was run?
A: 6.03

Q: How did the pIC50 turn out when `O=C(Nc1cncc2ccccc12)C1CN(Cc2nnc[nH]2)Cc2ccc(Cl)cc21` (centres undefined) was run?
A: 6.11

Q: `CC(C)(C)c1ccc(N(C(=O)CCC#N)C(C(=O)NCCc2cccc(F)c2)c2cccnc2)cc1` (centres undefined) was tested. Which pIC50 did it give?
A: 5.42

Q: With `O=C(NCC1(C(=O)Nc2cncc3ccccc23)CCOc2ccc(Cl)cc21)C1COCCN1CC(F)(F)F` (centres undefined) as the compound, how does the pIC50 read?
A: 4.77 and 4.57

Q: How did the pIC50 turn out when `Cc1ccncc1NC(=O)Cc1cc(Cl)cc(NC2CCC(F)(F)C2O)c1` (centres undefined) was run?
A: 4.64

Q: How did the pIC50 turn out when `N#CC1(CS(=O)(=O)N2Cc3ccc(Cl)cc3C3(CCN(c4cncc5ccccc45)C3=O)C2)CCS(=O)(=O)CC1` (centres undefined) was run?
A: 6.68

Q: How did the pIC50 turn out when `CC(C)Cn1cc(NC(=O)NCc2ccco2)c2ccccc2c1=O` was run?
A: 4.53

Q: How did the pIC50 turn out when `O=C(C[C@]1(C(=O)Nc2cncc3ccccc23)CCOc2ccc(Cl)cc21)N1CCN(C2CCOC2)CC1` (stereo in doubt) was run?
A: 5.70

Q: With `O=C(NCCc1cccc(F)c1)C(c1cccnc1)N(C(=O)c1cocn1)c1ccc(-n2ccnc2)cc1` (centres undefined) as the compound, how does the pIC50 read?
A: < 4.00

Q: With `CNC(=O)C1(N2CC3(CCN(c4cncc5cc(S(C)(=O)=O)ccc45)C3=O)c3cc(Cl)ccc3C2=O)CC1` (centres undefined) as the compound, how does the pIC50 read?
A: 6.58

Q: How did the pIC50 turn out when `CC(C)(C)c1ccc(N(C(=O)c2cnco2)C(C(=O)NCCc2cccc(F)c2)c2cccnc2)cc1` (centres undefined) was run?
A: 5.32

Q: With `Cc1ccncc1NC(=O)Cc1cncc(Cl)c1` as the compound, how does the pIC50 read?
A: 4.33

Q: With `CNCC1CCCN(C(=O)[C@@H](c2ccccc2)N2Cc3ccccc3C2=O)C1` (stereo in doubt) as the compound, how does the pIC50 read?
A: < 4.00

Q: How did the pIC50 turn out when `CC(C)(C)c1ccc(N(C(=O)c2n[nH]c(=O)[nH]c2=O)C(C(=O)NCCc2cccc(F)c2)c2cccnc2)cc1` (centres undefined) was run?
A: < 4.00

Q: `COC(=O)[C@@H]1CC[C@H](NC(=O)C(c2cccnc2)N(C(=O)c2cocn2)c2ccc(C(C)(C)C)cc2)C1` (stereo in doubt) was tested. Which pIC50 did it give?
A: 5.62

Q: How did the pIC50 turn out when `O=C(CN1Cc2ccc(Cl)cc2C(C(=O)Nc2cncc3ccccc23)C1)NC1CC1` (centres undefined) was run?
A: 7.12 and 7.00 and 6.73

Q: `Cc1cc(O)cc(C)c1C[C@H](NC(=O)[C@H](N)CCCNC(=N)N)C(=O)N[C@@H](CCCCN)C(=O)N[C@@H](Cc1ccccc1)C(N)=O` (stereo in doubt) was tested. Which pIC50 did it give?
A: < 4.00

Q: How did the pIC50 turn out when `C=CC(=O)NCc1ccc(C(=O)N[C@H](CO)c2ccc(Br)c(F)c2)cc1` (stereo in doubt) was run?
A: < 4.00

Q: With `COc1ccc2c(NC(=O)Cc3cccc(Cl)c3)cncc2c1` as the compound, how does the pIC50 read?
A: 5.06

Q: How did the pIC50 turn out when `O=C(Cc1cccc(Cl)c1)Nc1cncc2ccc(OCC(F)(F)F)cc12` was run?
A: 5.96

Q: How did the pIC50 turn out when `O=C1CC(Oc2cc(Cl)cc(CC(=O)Nn3cnc4ccccc43)c2)N1` (centres undefined) was run?
A: 4.09

Q: How did the pIC50 turn out when `O=C(Cc1cc(Cl)cc(Nc2ncc(C(F)(F)F)cc2Cl)c1)Nc1cncc2ccccc12` was run?
A: 5.77

Q: `O=C(Cc1cc(Cl)cc(Nc2ccnc(Br)c2)c1)Nc1cncc2ccccc12` was tested. Which pIC50 did it give?
A: 5.56

Q: With `COc1cc(Nc2cc(Cl)cc(CC(=O)Nc3cncc4ccccc34)c2)cc(OC)c1` as the compound, how does the pIC50 read?
A: 5.71

Q: With `O=C(Cc1cc(Cl)cc(Nc2cccc(N3CCOCC3)c2)c1)Nc1cncc2ccccc12` as the compound, how does the pIC50 read?
A: 5.61

Q: How did the pIC50 turn out when `O=C(Cc1cccc(Cl)c1)Nn1cnc2ccccc2c1=O` was run?
A: 5.06

Q: How did the pIC50 turn out when `Cn1ncc2c(NCc3ccc4cccnc4c3)ncnc21` was run?
A: < 4.00

Q: With `CC(Cn1ccnc1C#N)c1cccc(Cl)c1` (centres undefined) as the compound, how does the pIC50 read?
A: < 4.00

Q: With `CCc1cc(F)ccc1-c1cc(Cl)cc(CC(=O)Nc2cnccc2C)c1` as the compound, how does the pIC50 read?
A: 4.50

Q: How did the pIC50 turn out when `O=C(O)[C@@H](c1ccccc1)N1Cc2ccccc2C1=O` (stereo in doubt) was run?
A: 5.75

Q: How did the pIC50 turn out when `N#CC1(CS(=O)(=O)N2Cc3ccc(Cl)cc3C(C(=O)Nc3cncc4cc(Cl)ccc34)C2)CC1` (centres undefined) was run?
A: 6.55

Q: How did the pIC50 turn out when `O=C(Cc1cccc(Cl)c1)Nc1cncc2ccc(OCCN3CCCC3)cc12` was run?
A: 5.95

Q: How did the pIC50 turn out when `O=C(OCC(=O)N1CCC(Cc2ccccc2)CC1)c1cc(=O)[nH]c(=O)[nH]1` was run?
A: < 4.00

Q: `C=CC(=O)N(c1ccc(C(C)(C)C)cc1)C(C(=O)NCC1CCCO1)c1cccnc1` (centres undefined) was tested. Which pIC50 did it give?
A: 4.04

Q: `CN(C)C(C(=O)Nc1cncc2ccccc12)c1ccc(Cl)c(Cl)c1` (centres undefined) was tested. Which pIC50 did it give?
A: 5.37
